The source of these data is ChEMBL document CHEMBL1201862, “PubChem BioAssay data set” (2004).

Among the test systems are SW-620; UACC-257; SNB-19; TK-10; SK-MEL-2; DLD-1; A549; SNB-78; M19-MEL; DMS-273; SR; NCI-H460; HOP-62; NCI/ADR-RES; MDA-MB-435; MDA-N; DU-145; PC-3; BT-549; MDA-MB-231.
What all share (assay): NCI anticancer screen, dose series, 48 h

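Tested at 5 concentrations; 48 h exposure; 96-well plates; endpoints linearly interpolated, else capped at highest concentration. Abbreviation: GI50, concentration required for 50% inhibition of growth.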 Calls of active or inactive are those of the source. No stated cut-off is given here; in the data, active = GI50 up to about 1.1 µM and inactive = higher.

Take `O=C(CCC(=O)Nc1ccc(Cl)c(Cl)c1)CC(=O)c1ccc(Br)cc1`: the GI50 in the experiment on SW-620 was > 100 µM (inactive); in the experiment with UACC-257 it was 49.4 µM (inactive); with SNB-19 it was > 100 µM (inactive); in the experiment on TK-10, > 100 µM (inactive); with SK-MEL-2, > 100 µM (inactive); with DLD-1, > 100 µM (inactive). Also, the GI50 in the experiment on A549, in the experiment with SNB-78 and in the experiment with M19-MEL was > 100 µM (inactive) throughout.

Regarding `O=C(c1ccccc1)[C@@H]1C[C@H](Sc2ccccc2)c2cc(Cl)ccc2N1`, the GI50 in the experiment on SW-620 was 22.5 µM (inactive); in the experiment on DMS-273 it was 24 µM (inactive); in the experiment with UACC-257, 17.1 µM (inactive); in the experiment on SNB-19 it was 43.3 µM (inactive); with TK-10 it was 25.2 µM (inactive); in the experiment with SK-MEL-2, 31.8 µM (inactive). For the same compound, the GI50 with DLD-1 was 23.4 µM (inactive); in the experiment with SR, 14 µM (inactive); in the experiment with A549, 28.5 µM (inactive); with SNB-78, 36.9 µM (inactive); in the experiment on NCI-H460, 26.5 µM (inactive); with HOP-62, 51.6 µM (inactive). Further, the GI50 with M19-MEL is 30.1 µM (inactive).

Consider `CCCCCCCCCCCCCCCCOCC(COP(=O)([O-])OCC[N+](C)(C)C)OCCCCCCCCCCCCCCCC` (stereo not given), for which the GI50 in the experiment with SW-620, in the experiment with DMS-273, with UACC-257, in the experiment on SNB-19, with SK-MEL-2 and in the experiment with DLD-1 was > 100 µM (inactive) throughout. Also, the GI50 in the experiment on A549 was > 10 µM (inactive); in the experiment with SNB-78 it was > 100 µM (inactive); in the experiment on NCI-H460 it was > 100 µM (inactive); in the experiment on HOP-62, > 100 µM (inactive); in the experiment on M19-MEL, > 100 µM (inactive); in the experiment on NCI/ADR-RES it was > 92.9 µM (inactive).

Turning to `COc1cc2c(c(OC)c1OC)-c1[nH]ncc1CC2`, the GI50 with SW-620, in the experiment with DMS-273, with UACC-257, in the experiment on SNB-19, in the experiment with TK-10 and in the experiment with SK-MEL-2 was > 100 µM (inactive) in each case. The GI50 in the experiment with DLD-1, in the experiment with SR, with A549, in the experiment on SNB-78, in the experiment with NCI-H460 and in the experiment on HOP-62 was > 100 µM (inactive) throughout. In addition, the GI50 in the experiment on M19-MEL was > 100 µM (inactive).

With `CC(C)C1CN(C(=O)OCc2ccccc2)C2N1C(=O)C2(C)OCc1ccccc1` (stereo not given), the GI50 with SW-620 is 40.9 µM (inactive); in the experiment with DMS-273 it was 35.3 µM (inactive); in the experiment with UACC-257 it was 28.2 µM (inactive); in the experiment on SNB-19, 46.7 µM (inactive); in the experiment on TK-10, 42.9 µM (inactive); in the experiment on SK-MEL-2, 28.2 µM (inactive). In addition, the GI50 was 36 µM (inactive) in the experiment on DLD-1; 29.2 µM (inactive) with SR; 29.2 µM (inactive) with A549; 21.6 µM (inactive) in the experiment with NCI-H460; 94.4 µM (inactive) in the experiment on HOP-62; 32.4 µM (inactive) in the experiment on M19-MEL.

Consider `Nc1c(C(=O)Nc2ccc(C3=NCCN3)cc2)cccc1C(=O)Nc1ccc(C2=NCCN2)cc1`, for which the GI50 in the experiment with SW-620, with DMS-273, with UACC-257, in the experiment with SNB-19, with SK-MEL-2 and in the experiment on DLD-1 was > 100 µM (inactive) throughout. Also, the GI50 in the experiment on A549 was > 100 µM (inactive); with SNB-78 it was > 83.8 µM (inactive); in the experiment on NCI-H460, > 100 µM (inactive); in the experiment with M19-MEL, > 100 µM (inactive); in the experiment on NCI/ADR-RES, > 100 µM (inactive).

Turning to `CN(c1ccccc1)c1c(-c2ccccc2)c(=O)oc2c1ccc1occc12`, the GI50 with SW-620, in the experiment with DMS-273, in the experiment on UACC-257, with SNB-19, with SK-MEL-2 and with DLD-1 was > 100 µM (inactive) in each case. The GI50 in the experiment with A549 is > 100 µM (inactive); in the experiment on SNB-78 it was > 100 µM (inactive); in the experiment on NCI-H460, > 76.7 µM (inactive); with HOP-62, > 100 µM (inactive); with M19-MEL it was > 100 µM (inactive); in the experiment with NCI/ADR-RES, > 100 µM (inactive).

For `O=C(NN1C(=O)C(Cl)C1c1cccc([N+](=O)[O-])c1)c1ccccc1O` (stereo not given), the GI50 is > 100 µM (inactive) in the experiment with SW-620; > 100 µM (inactive) in the experiment on UACC-257; 68.5 µM (inactive) in the experiment on SNB-19; > 100 µM (inactive) in the experiment on TK-10; > 100 µM (inactive) in the experiment on SK-MEL-2; > 100 µM (inactive) in the experiment with SR. Further, the GI50 in the experiment with A549, with NCI-H460, in the experiment on HOP-62 and with M19-MEL was > 100 µM (inactive) throughout.

For `COc1cc2c(cc1Oc1c(Oc3c(O)c(OC)cc4c3C(CC(C)C)N(C)CC4)c(OC)cc3c1C(CC(C)C)N(C)CC3)C(CC(C)C)N(C)CC2` (stereo not given), the GI50 is 0.879 µM (active) with SW-620; 1.18 µM (inactive) with DMS-273; 1.45 µM (inactive) in the experiment on UACC-257; 0.582 µM (active) in the experiment with SNB-19; 0.867 µM (active) in the experiment with SK-MEL-2; 1.76 µM (inactive) in the experiment with DLD-1. For the same compound, the GI50 with A549 is 0.429 µM (active); in the experiment on SNB-78 it was 1.13 µM (inactive); with NCI-H460, 0.519 µM (active); in the experiment with HOP-62, 0.533 µM (active); with M19-MEL, 0.515 µM (active); in the experiment with NCI/ADR-RES, 2.38 µM (inactive).

Regarding `COc1ccccc1N1C(Cl)C(=O)C1c1c[nH]c2ccccc12` (stereo not given), the GI50 was > 100 µM (inactive) in the experiment on SW-620; > 100 µM (inactive) in the experiment on UACC-257; 26.7 µM (inactive) in the experiment with SNB-19; > 100 µM (inactive) in the experiment with TK-10; > 100 µM (inactive) with SK-MEL-2; > 100 µM (inactive) in the experiment with SR. Also, the GI50 with A549, in the experiment on NCI-H460, in the experiment on HOP-62 and with M19-MEL was > 100 µM (inactive) each time.

Take `O=C(Nc1ccc([N+](=O)[O-])cc1[N+](=O)[O-])C(=O)C(C(=O)c1ccc2ccccc2c1)C1OC(=O)c2ccccc21` (stereo not given): the GI50 in the experiment on SW-620 was 13.2 µM (inactive); in the experiment on DMS-273, 10.2 µM (inactive); with UACC-257, 24.4 µM (inactive); in the experiment with SNB-19, 11.5 µM (inactive); in the experiment with TK-10, 24.1 µM (inactive); with SK-MEL-2, 22.3 µM (inactive). In addition, the GI50 was 27.5 µM (inactive) in the experiment with DLD-1; 0.817 µM (active) with SR; 25.5 µM (inactive) in the experiment with A549; 21.4 µM (inactive) with SNB-78; 13.2 µM (inactive) in the experiment with NCI-H460; 22.4 µM (inactive) in the experiment on HOP-62. Moreover, in the experiment on M19-MEL, the GI50 is 12.2 µM (inactive).

Consider `O=C(/C=C/CC(O)(c1ccccc1)c1ccccc1)Nc1ccccc1Cl`, for which the GI50 in the experiment on SW-620, in the experiment on UACC-257, with SNB-19, in the experiment with TK-10, in the experiment with SK-MEL-2 and with DLD-1 was > 100 µM (inactive) in each case. Moreover, the GI50 in the experiment with SR, in the experiment with NCI-H460, with HOP-62 and in the experiment on M19-MEL was > 100 µM (inactive) each time.

On to `CC(=O)Nc1ccc(C2=N/C(=C\c3ccc(Cl)c(Cl)c3)C(=O)O2)cc1`, for which the GI50 was > 100 µM (inactive) in the experiment on SW-620; 80.4 µM (inactive) in the experiment with DMS-273; > 100 µM (inactive) with UACC-257; > 100 µM (inactive) with SNB-19; > 100 µM (inactive) with TK-10; > 100 µM (inactive) with SK-MEL-2. Besides, the GI50 in the experiment with DLD-1 is 64 µM (inactive); with SR it was 68.9 µM (inactive); in the experiment with A549 it was > 100 µM (inactive); in the experiment on SNB-78 it was > 100 µM (inactive); in the experiment on NCI-H460, > 100 µM (inactive); in the experiment with HOP-62, > 100 µM (inactive). In addition, in the experiment with M19-MEL, the GI50 was 82.6 µM (inactive).

Take `CC[C@]1(c2ccc3c(c2)OCO3)C=[N+]([O-])O[C@H](OC2CCCC2(c2ccccc2)c2ccccc2)[C@@H]1OC(C)=O` (stereo not given in full): the GI50 in the experiment on SW-620 is 2.96 µM (inactive); in the experiment with UACC-257, 2.58 µM (inactive); in the experiment on SNB-19, 3.22 µM (inactive); with TK-10, 3.27 µM (inactive); with SK-MEL-2, 2.38 µM (inactive); in the experiment with MDA-MB-435 it was 1.8 µM (inactive). The GI50 in the experiment on MDA-N is 3.83 µM (inactive); with SR, 2.22 µM (inactive); with A549, 2.63 µM (inactive); with DU-145, 2.1 µM (inactive); in the experiment with NCI-H460, 2.24 µM (inactive); with PC-3, 3.24 µM (inactive). Further, the GI50 in the experiment with BT-549 is 2.53 µM (inactive); in the experiment with HOP-62 it was 2.08 µM (inactive); in the experiment on MDA-MB-231, 4.01 µM (inactive); with NCI/ADR-RES it was 1.92 µM (inactive).

`O=C1C(=O)c2cc([N+](=O)[O-])ccc2-c2ccc([N+](=O)[O-])cc21`: the GI50 was 0.401 µM (active) with SW-620; 0.397 µM (active) with DMS-273; 1.2 µM (inactive) with UACC-257; 1.74 µM (inactive) in the experiment on SNB-19; 2.02 µM (inactive) in the experiment with SK-MEL-2; 1.64 µM (inactive) in the experiment with DLD-1. The GI50 was 2.52 µM (inactive) in the experiment on A549; 0.698 µM (active) in the experiment with SNB-78; 1 µM (active) in the experiment with NCI-H460; 2.89 µM (inactive) with HOP-62; 0.285 µM (active) in the experiment with M19-MEL; 0.344 µM (active) with NCI/ADR-RES.

On to `CCN(CC)c1c(C)c(C(=O)OC)nn1-c1ccccc1`, for which the GI50 in the experiment on SW-620 was > 100 µM (inactive); in the experiment on DMS-273, > 100 µM (inactive); with UACC-257 it was 31.2 µM (inactive); in the experiment on SNB-19, > 72.1 µM (inactive); with SK-MEL-2, > 89.7 µM (inactive); in the experiment on DLD-1, > 100 µM (inactive). In addition, the GI50 is 97.5 µM (inactive) in the experiment on A549; > 100 µM (inactive) in the experiment with SNB-78; > 100 µM (inactive) in the experiment on NCI-H460; > 100 µM (inactive) with HOP-62; > 66.2 µM (inactive) in the experiment on M19-MEL; 36.4 µM (inactive) with NCI/ADR-RES.
